Legend:
Assay type in all cases: cell-based, human
[1] = tested on: PBMC; assay: IFN-γ ELISpot on PBMC of CD patients after 3-day barley challenge; conditions: after barley challenge
Text: (§1) Australian Caucasian HLA-DQ2.5^+ and/or HLA-DQ8^+ CD subjects were recruited by advertisement in the Coeliac Society of Victoria newsletter and all had biopsy-proven CD conforming to ESPGHAN criteria. Patients had been on strict gluten free diet for at least 4 weeks prior to commencing grain challenge. Patients underwent 3-day grain challenge with oats, barley, or combined wheat, barley, and rye muffins, and 6 days after commencement, blood was collected. Day 0 responses were not observed in the selection of patients tested, as described previously^8.
(§2) Oats challenge consisted of 100 g dry weight daily of one of three commercial brands of oats: one not tested for wheat contamination (Uncle Toby's; Oats #1), and two shown by R5 ELISA to contain less than 20 ppm wheat gluten (Tilquhilie Pudding; Oats #2 and Freedom Food; Oats #3). Barley challenge consisted of pearl barley (Ward McKenzie) cooked into a risotto (150 g dry weight daily) and the wheat challenge consisted of four 50 g slices of wheat bread daily (Baker's Delight white loaf cut to toasting thickness). The combined wheat, barley, and rye challenge consisted of muffins baked with wheat flour (White Wings), barley flour (Four Leaf Milling), and rye flour (Four Leaf Milling; 22-25 g dry weight each daily). A symptom diary based on a […] Likert scale was completed by participants daily from baseline until day 6.
(§3) Two avenin peptide libraries were utilized for epitope screening. These were designed using avenin sequences from GenBank and a customized algorithm, as previously described^9. The initial library consisted of 199 screening-grade 20 mers including all possible 12 mers (Mimotopes). This library was screened with and without tTG pre-treatment. The second library consisted of additional avenin sequences that were synthesized with glutamate substitution at sites predicted to be deamidated by published algorithms^10, 11 removing the requirement for tTG treatment. This library contained 369 screening-grade 20 mers, including all possible 12 mers (Pepscan). The second round avenin library contained wild-type and deamidated versions of the most immunogenic sequences (25 high quality 16 mers from Mimotopes). High quality peptides containing previously described immunogenic sequences from wheat, barley, and rye were used to test for cross-reactivity^8 (Pepscan). High quality hordein and avenin peptides for TCC testing and biochemical studies were ordered from Pepscan, Mimotopes, or GL Biochem.
(§4) Peripheral blood mononuclear cells (PBMC) were isolated from heparinized whole blood using Ficoll-Paque™ Plus density-gradient centrifugation (GE Healthcare). IFN-γ ELISpot (Mabtech) was set up as previously described^8.

[2] = tested on: PBMC; assay: IFN-γ ELISpot on PBMC of CD patients on day 6 after 3-day oats challenge; conditions: after 3-day oats challenge
Text: as §1, §2, §3, §4

[3] = tested on: Patient 6 TCC-01; assay: IFN-γ ELISpot with T cell clone; conditions: TCC Patient 6 TCC-01 (Table 5); mean no antigen 2
Experimental: as §4
(§5) Isolation of TCC from CD patients was carried out as previously described^8. Briefly, CFSE-labeled PBMC were incubated with antigen for 7 days in IMDM supplemented with 5% heat-inactivated pooled human serum (PHS), 2 mM GlutaMAX™, 100 μM MEM non-essential amino acids (both from Gibco, Invitrogen), and 50 μM 2-mercaptoethanol (Sigma). Proliferated cells were single-cell sorted into 96-well plates containing IL-2, IL-4, anti-CD3 mAb, irradiated feeder cells (allogeneic PBMC and JY-EBV). TCC were expanded and maintained in IL-2 and IL-4 and tested for specificity by ELISpot with irradiated HLA-matched PBMC as antigen-presenting cells. Expanded clones were tested for HLA-DQ restriction, TCR Vbeta usage, and with lysine scans to work out minimal epitopes. See Table 1 below for TCC and epitope information.

[4] = tested on: Patient 2 TCC-01; assay: IFN-γ ELISpot with T cell clone; conditions: TCC Patient 2 TCC-01 (Table 5); mean no antigen 1.1
Experimental: as §4, §5

[5] = tested on: Patient 14 TCC-01; assay: IFN-γ ELISpot with T cell clone; conditions: TCC Patient 14 TCC-01 (Table 5); mean no antigen 11.3, high background, SFU >25 considered as positive responses
Experimental: as §4, §5

Sequence: AQFDPSEQYQPYPEQQQPIL [avenin library peptide]
- IFN-γ ELISpot response (raw SFU) ([1]; Patient 1, peptide 50 μg/ml): 35 SFU
- significant SFU as a percentage of maximal peptide SFU ([1]; Patient 1, peptide 50 μg/ml): ^^ (^^: 10-20%)
- IFN-γ ELISpot response (raw SFU) ([1]; Patient 2, peptide 50 μg/ml): 159 SFU
- significant SFU as a percentage of maximal peptide SFU ([1]; Patient 2, peptide 50 μg/ml): *** (***: >70%)
- IFN-γ ELISpot response (raw SFU) ([1]; Patient 3, peptide 50 μg/ml): 24 SFU
- significant SFU as a percentage of maximal peptide SFU ([1]; Patient 3, peptide 50 μg/ml): ^^ (^^: 10-20%)

Sequence: EQYQPYPEEQPFMQPL [partially deamidated avenin peptide]
- IFN-γ ELISpot response (raw SFU) ([2]; patient P1, peptide 1 μg/ml): 1 SFU
- IFN-γ ELISpot response (raw SFU) ([2]; patient P1, peptide 10 μg/ml): 1 SFU
- IFN-γ ELISpot response (raw SFU) ([2]; patient P1, peptide 100 μg/ml): 2 SFU
- IFN-γ ELISpot response (raw SFU) ([2]; patient P2, peptide 1 μg/ml): 2 SFU
- IFN-γ ELISpot response (raw SFU) ([2]; patient P2, peptide 10 μg/ml): 0 SFU
- IFN-γ ELISpot response (raw SFU) ([2]; patient P2, peptide 100 μg/ml): 27 SFU
- significant SFU as a percentage of maximal peptide SFU ([2]; patient P2, peptide 100 μg/ml): ** (**: 40-70%)
- IFN-γ ELISpot response (raw SFU) ([2]; patient P3, peptide 1 μg/ml): 0 SFU
- IFN-γ ELISpot response (raw SFU) ([2]; patient P3, peptide 10 μg/ml): 2 SFU
- IFN-γ ELISpot response (raw SFU) ([2]; patient P3, peptide 100 μg/ml): 2 SFU
- IFN-γ ELISpot response (raw SFU) ([2]; patient P11, peptide 1 μg/ml): 0 SFU
- IFN-γ ELISpot response (raw SFU) ([2]; patient P11, peptide 10 μg/ml): 0 SFU
- IFN-γ ELISpot response (raw SFU) ([2]; patient P11, peptide 100 μg/ml): 1 SFU
- IFN-γ ELISpot response (raw SFU) ([2]; patient P12, peptide 1 μg/ml): 0 SFU
- IFN-γ ELISpot response (raw SFU) ([2]; patient P12, peptide 10 μg/ml): 0 SFU
- IFN-γ ELISpot response (raw SFU) ([2]; patient P12, peptide 100 μg/ml): 0 SFU
- IFN-γ ELISpot response (raw SFU) ([2]; patient P13, peptide 50 μg/ml): 0 SFU

Sequence: EQYQPYPEQEQPFVQQQPPF [avenin library peptide]
- IFN-γ ELISpot response (raw SFU) [3]: 30 SFU
- IFN-γ ELISpot response (raw SFU) [4]: 283 SFU
- IFN-γ ELISpot response (raw SFU) ([1]; Patient 1, peptide 50 μg/ml): 99 SFU
- significant SFU as a percentage of maximal peptide SFU ([1]; Patient 1, peptide 50 μg/ml): * (*: 20-40%)
- IFN-γ ELISpot response (raw SFU) ([1]; Patient 2, peptide 50 μg/ml): 192 SFU
- significant SFU as a percentage of maximal peptide SFU ([1]; Patient 2, peptide 50 μg/ml): *** (***: >70%)
- IFN-γ ELISpot response (raw SFU) ([1]; Patient 3, peptide 50 μg/ml): 14 SFU
- significant SFU as a percentage of maximal peptide SFU ([1]; Patient 3, peptide 50 μg/ml): (^: 5-10%)

Sequence: EQYQPYPEQQPFMQPL [avenin peptide]
- IFN-γ ELISpot response (raw SFU) ([2]; patient P1, peptide 1 μg/ml): 0 SFU
- IFN-γ ELISpot response (raw SFU) ([2]; patient P1, peptide 10 μg/ml): 0 SFU
- IFN-γ ELISpot response (raw SFU) ([2]; patient P1, peptide 100 μg/ml): 4 SFU
- IFN-γ ELISpot response (raw SFU) ([2]; patient P2, peptide 1 μg/ml): 0 SFU
- IFN-γ ELISpot response (raw SFU) ([2]; patient P2, peptide 10 μg/ml): 3 SFU
- IFN-γ ELISpot response (raw SFU) ([2]; patient P2, peptide 100 μg/ml): 49 SFU
- significant SFU as a percentage of maximal peptide SFU ([2]; patient P2, peptide 100 μg/ml): *** (***: >70%)
- IFN-γ ELISpot response (raw SFU) ([2]; patient P3, peptide 1 μg/ml): 3 SFU
- IFN-γ ELISpot response (raw SFU) ([2]; patient P3, peptide 10 μg/ml): 18 SFU
- significant SFU as a percentage of maximal peptide SFU ([2]; patient P3, peptide 10 μg/ml): * (*: 20-40%)
- IFN-γ ELISpot response (raw SFU) ([2]; patient P3, peptide 100 μg/ml): 5 SFU
- IFN-γ ELISpot response (raw SFU) ([2]; patient P11, peptide 1 μg/ml): 3 SFU
- IFN-γ ELISpot response (raw SFU) ([2]; patient P11, peptide 10 μg/ml): 0 SFU
- IFN-γ ELISpot response (raw SFU) ([2]; patient P11, peptide 100 μg/ml): 54 SFU
- significant SFU as a percentage of maximal peptide SFU ([2]; patient P11, peptide 100 μg/ml): *** (***: >70%)
- IFN-γ ELISpot response (raw SFU) ([2]; patient P12, peptide 1 μg/ml): 0 SFU
- IFN-γ ELISpot response (raw SFU) ([2]; patient P12, peptide 10 μg/ml): 2 SFU
- IFN-γ ELISpot response (raw SFU) ([2]; patient P12, peptide 100 μg/ml): 31 SFU
- significant SFU as a percentage of maximal peptide SFU ([2]; patient P12, peptide 100 μg/ml): ** (**: 40-70%)
- IFN-γ ELISpot response (raw SFU) ([2]; patient P13, peptide 50 μg/ml): 0 SFU
- IFN-γ ELISpot response (raw SFU) ([1]; Patient 1, peptide 50 μg/ml): 19 SFU
- significant SFU as a percentage of maximal peptide SFU ([1]; Patient 1, peptide 50 μg/ml): (^: 5-10%)
- IFN-γ ELISpot response (raw SFU) ([1]; Patient 2, peptide 50 μg/ml): 25 SFU
- significant SFU as a percentage of maximal peptide SFU ([1]; Patient 2, peptide 50 μg/ml): ^^ (^^: 10-20%)
- IFN-γ ELISpot response (raw SFU) ([1]; Patient 3, peptide 50 μg/ml): 33 SFU
- significant SFU as a percentage of maximal peptide SFU ([1]; Patient 3, peptide 50 μg/ml): * (*: 20-40%)

Sequence: EQYQPYPEQQQPFLQQQPLE [avenin library peptide]
- IFN-γ ELISpot response (raw SFU) ([1]; Patient 1, peptide 50 μg/ml): 25 SFU
- significant SFU as a percentage of maximal peptide SFU ([1]; Patient 1, peptide 50 μg/ml): (^: 5-10%)
- IFN-γ ELISpot response (raw SFU) ([1]; Patient 2, peptide 50 μg/ml): 196 SFU
- significant SFU as a percentage of maximal peptide SFU ([1]; Patient 2, peptide 50 μg/ml): *** (***: >70%)
- IFN-γ ELISpot response (raw SFU) ([1]; Patient 3, peptide 50 μg/ml): 24 SFU
- significant SFU as a percentage of maximal peptide SFU ([1]; Patient 3, peptide 50 μg/ml): ^^ (^^: 10-20%)

Sequence: FPEQPIPEQPQPYP [barley peptide, 1103203A (30-43) [Q232 to E, Q37 to E]]
- IFN-γ ELISpot response (raw SFU) [3]: 92 SFU
- IFN-γ ELISpot response (raw SFU) [4]: 1 SFU
- IFN-γ ELISpot response (raw SFU) [5]: 66 SFU

Sequence: FPEQPVPEQPQPYP [barley peptide, 1103203B (30-43) [Q32 to E, Q37 to E]]
- IFN-γ ELISpot response (raw SFU) [3]: 99 SFU
- IFN-γ ELISpot response (raw SFU) [4]: 2 SFU
- IFN-γ ELISpot response (raw SFU) [5]: 78 SFU

Sequence: PEQPFPEQPQPYPQQP [barley peptide, AFM77740.1 (25-40) [Q26 to E, Q31 to E]]
- IFN-γ ELISpot response (raw SFU) [3]: 73 SFU
- IFN-γ ELISpot response (raw SFU) [4]: 202 SFU
- IFN-γ ELISpot response (raw SFU) [5]: 66 SFU

Source: patent US20160238590A1, “COMPOSITIONS AND METHODS RELATED TO OAT SENSITIVITY” (IMMUSANT, INC., priority 2013, published 2016)
